ChEMBL document CHEMBL3627718, “Design, synthesis and preliminary bioactivity studies of imidazolidine-2,4-dione derivatives as Bcl-2 inhibitors” (Bioorg Med Chem, 2015)

Columns and labels:
[1] = molecular target: Apoptosis regulator Bcl-2 (Homo sapiens, UniProt P10415); assay: Competitive binding affinity to Bcl-2 (unknown origin) preincubated for 30 mins followed by 5-FAM-Bid-BH3 peptide addition measured after 20 mins by fluorescence polarization assay
[2] = test system: K562; assay: Cytotoxicity against human K562 cells assessed as inhibition of cell proliferation after 48 hrs by MTT assay; assay type: functional, cell-based; details: K562, 48 h
[3] = test system: PC-3; assay: Cytotoxicity against human PC3 cells assessed as inhibition of cell proliferation after 48 hrs by MTT assay; assay type: functional, cell-based; details: PC-3, 48 h
[4] = test system: MDA-MB-231; assay: Cytotoxicity against human MDA-MB-231 cells assessed as inhibition of cell proliferation after 48 hrs by MTT assay; assay type: functional, cell-based; details: MDA-MB-231, 48 h
[5] = molecular target: Bcl-2-like protein 1 (Homo sapiens, UniProt Q07817); assay: Competitive binding affinity to Bcl-XL (unknown origin) preincubated for 30 mins followed by 5-FAM-Bid-BH3 peptide addition measured after 20 mins by fluorescence polarization assay
Sequence of Bcl-2-like protein 1 (Q07817 whole entry): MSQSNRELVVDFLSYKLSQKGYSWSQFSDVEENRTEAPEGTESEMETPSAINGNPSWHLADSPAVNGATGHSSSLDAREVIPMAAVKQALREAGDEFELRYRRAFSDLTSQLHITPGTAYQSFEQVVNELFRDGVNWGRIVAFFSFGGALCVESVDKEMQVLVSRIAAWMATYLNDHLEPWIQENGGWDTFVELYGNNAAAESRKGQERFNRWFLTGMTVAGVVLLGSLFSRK

[6] = molecular target: Induced myeloid leukemia cell differentiation protein Mcl-1 (Homo sapiens, UniProt Q07820); assay: Competitive binding affinity to Mcl-1 (unknown origin) preincubated for 30 mins followed by 5-FAM-Bid-BH3 peptide addition measured after 20 mins by fluorescence polarization assay
Sequence of Induced myeloid leukemia cell differentiation protein Mcl-1 (Q07820 whole entry): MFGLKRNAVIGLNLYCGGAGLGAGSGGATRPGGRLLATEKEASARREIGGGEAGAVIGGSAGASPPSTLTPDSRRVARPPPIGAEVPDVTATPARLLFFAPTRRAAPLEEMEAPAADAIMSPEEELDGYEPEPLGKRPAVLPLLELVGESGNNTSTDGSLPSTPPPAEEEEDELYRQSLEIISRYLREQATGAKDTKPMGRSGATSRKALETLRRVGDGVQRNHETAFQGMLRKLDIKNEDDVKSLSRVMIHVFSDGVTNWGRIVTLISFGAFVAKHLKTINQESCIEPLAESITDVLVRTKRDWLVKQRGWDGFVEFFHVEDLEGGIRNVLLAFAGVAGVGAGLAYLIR

Sequence of Apoptosis regulator Bcl-2 (P10415 whole entry): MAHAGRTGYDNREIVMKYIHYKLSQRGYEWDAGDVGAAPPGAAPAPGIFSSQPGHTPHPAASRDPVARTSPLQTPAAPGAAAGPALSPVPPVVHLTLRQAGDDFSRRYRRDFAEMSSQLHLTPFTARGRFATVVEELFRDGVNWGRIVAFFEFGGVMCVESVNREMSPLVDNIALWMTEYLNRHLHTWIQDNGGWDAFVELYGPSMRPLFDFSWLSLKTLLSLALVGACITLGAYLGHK

Cc1ccc(S(=O)(=O)NC(=O)[C@H](Cc2ccccc2)N2C(=O)/C(=C/c3ccc(-c4ccccc4)cc3)SC2=S)cc1
Ki [1]: 0.62 µM
IC50 [2]: 44.9 µM
IC50 [3]: 39.8 µM
IC50 [4]: 35.2 µM

O=C(Nc1ccc(O)cc1)[C@H](Cc1ccccc1)N1C(=O)N[C@@H](Cc2ccc(-c3ccc(Cl)cc3)cc2)C1=O
Ki [1]: > 50 µM

COC(=O)[C@H](Cc1ccccc1)NC(=O)[C@H](Cc1ccccc1)N1C(=O)N[C@@H](Cc2ccc(-c3ccc(Cl)cc3)cc2)C1=O
Ki [1]: > 50 µM

O=C(O)[C@H](Cc1ccccc1)NC(=O)[C@H](Cc1ccccc1)N1C(=O)N[C@@H](Cc2ccc(-c3ccc(Cl)cc3)cc2)C1=O
Ki [1]: > 50 µM

O=C(O)[C@H](Cc1ccccc1)N1C(=O)N[C@@H](Cc2ccccc2)C1=O
Ki [1]: > 50 µM

O=C(O)[C@H](Cc1ccccc1)N1C(=O)N[C@@H](Cc2ccc(Br)cc2)C1=O
Ki [1]: > 50 µM

O=C(O)[C@H](Cc1ccccc1)N1C(=O)N[C@@H](Cc2ccc(-c3ccc(Cl)cc3)cc2)C1=O
Ki [1]: > 50 µM

Cc1cccc(-c2ccc(C[C@@H]3NC(=O)N([C@@H](Cc4ccccc4)C(=O)O)C3=O)cc2)c1
Ki [1]: > 50 µM

O=C(O)[C@H](Cc1ccccc1)N1C(=O)N[C@@H](Cc2ccc(-c3ccnc(F)c3)cc2)C1=O
Ki [1]: > 50 µM

O=C(NS(=O)(=O)c1ccccc1)[C@H](Cc1ccccc1)N1C(=O)N[C@@H](Cc2ccccc2)C1=O
Ki [1]: > 50 µM

O=C(NS(=O)(=O)c1ccc(Cl)c([N+](=O)[O-])c1)[C@H](Cc1ccccc1)N1C(=O)N[C@@H](Cc2ccccc2)C1=O
Ki [1]: > 50 µM

O=C(NS(=O)(=O)c1ccccc1)[C@H](Cc1ccccc1)N1C(=O)N[C@@H](Cc2ccc(Br)cc2)C1=O
Ki [1]: > 50 µM

O=C(NS(=O)(=O)c1ccc(Cl)c([N+](=O)[O-])c1)[C@H](Cc1ccccc1)N1C(=O)N[C@@H](Cc2ccc(Br)cc2)C1=O
Ki [1]: > 50 µM

O=C(NS(=O)(=O)c1ccccc1)[C@H](Cc1ccccc1)N1C(=O)N[C@@H](Cc2ccc(-c3ccc(Cl)cc3)cc2)C1=O
Ki [1]: 19 µM

Cc1ccc(S(=O)(=O)NC(=O)[C@H](Cc2ccccc2)N2C(=O)N[C@@H](Cc3ccc(-c4ccc(Cl)cc4)cc3)C2=O)cc1
Ki [1]: > 50 µM

O=C(NS(=O)(=O)c1ccc(Cl)c([N+](=O)[O-])c1)[C@H](Cc1ccccc1)N1C(=O)N[C@@H](Cc2ccc(-c3ccc(Cl)cc3)cc2)C1=O
Ki [1]: 3.7 µM
IC50 [2]: 39.4 µM
Ki [5]: 6.1 µM
IC50 [3]: 51.7 µM
Ki [6]: 2.9 µM
IC50 [4]: 70.8 µM

O=C(NS(=O)(=O)c1cccc([N+](=O)[O-])c1)[C@H](Cc1ccccc1)N1C(=O)N[C@@H](Cc2ccc(-c3ccc(Cl)cc3)cc2)C1=O
Ki [1]: 15 µM
IC50 [2]: 49 µM
Ki [5]: > 50 µM
IC50 [3]: 73.3 µM
Ki [6]: > 50 µM
IC50 [4]: 76.4 µM

Cc1cccc(-c2ccc(C[C@@H]3NC(=O)N([C@@H](Cc4ccccc4)C(=O)NS(=O)(=O)c4ccccc4)C3=O)cc2)c1
Ki [1]: > 50 µM

Cc1ccc(S(=O)(=O)NC(=O)[C@H](Cc2ccccc2)N2C(=O)N[C@@H](Cc3ccc(-c4cccc(C)c4)cc3)C2=O)cc1
Ki [1]: 13 µM
IC50 [2]: 46.9 µM
Ki [5]: > 50 µM
IC50 [3]: 56 µM
Ki [6]: > 50 µM
IC50 [4]: 63.5 µM

Cc1cccc(-c2ccc(C[C@@H]3NC(=O)N([C@@H](Cc4ccccc4)C(=O)NS(=O)(=O)c4ccc(Cl)c([N+](=O)[O-])c4)C3=O)cc2)c1
Ki [1]: 4.4 µM
IC50 [2]: 35.1 µM
Ki [5]: 4.7 µM
IC50 [3]: 28.4 µM
Ki [6]: 2.3 µM
IC50 [4]: 57.8 µM

O=Cc1ccc(-c2ccc(C[C@@H]3NC(=O)N([C@@H](Cc4ccccc4)C(=O)NS(=O)(=O)c4ccc(Cl)c([N+](=O)[O-])c4)C3=O)cc2)cc1
Ki [1]: 13 µM
IC50 [2]: 68.4 µM
Ki [5]: > 50 µM
IC50 [3]: 63.8 µM
Ki [6]: 9.3 µM
IC50 [4]: 83.4 µM

O=C(NS(=O)(=O)c1ccccc1)[C@H](Cc1ccccc1)N1C(=O)N[C@@H](Cc2ccc(-c3ccnc(F)c3)cc2)C1=O
Ki [1]: > 50 µM

Cc1ccc(S(=O)(=O)NC(=O)[C@H](Cc2ccccc2)N2C(=O)N[C@@H](Cc3ccc(-c4ccnc(F)c4)cc3)C2=O)cc1
Ki [1]: > 50 µM

O=C(NS(=O)(=O)c1ccc(Cl)c([N+](=O)[O-])c1)[C@H](Cc1ccccc1)N1C(=O)N[C@@H](Cc2ccc(-c3ccnc(F)c3)cc2)C1=O
Ki [1]: > 50 µM

COC(=O)[C@@H](NC(=O)[C@H](Cc1ccccc1)N1C(=O)N[C@@H](Cc2ccc(-c3ccc(Cl)cc3)cc2)C1=O)C(C)C
Ki [1]: > 50 µM

CC(C)[C@H](NC(=O)[C@H](Cc1ccccc1)N1C(=O)N[C@@H](Cc2ccc(-c3ccc(Cl)cc3)cc2)C1=O)C(=O)O
Ki [1]: > 50 µM

CC(=O)Oc1ccc(NC(=O)[C@H](Cc2ccccc2)N2C(=O)N[C@@H](Cc3ccc(-c4ccc(Cl)cc4)cc3)C2=O)cc1
Ki [1]: > 50 µM
